A word on the EC50: it is the midpoint of the concentration-response curve.

This experiment has as its system HMPV clinical isolate A2 strain TN 94-49. In words: HMPV antiviral assay, Method 2 (LLC-MK2 cells with CP-100-356, ATP-Lite). The format is cell-based. As to conditions: human metapneumovirus; hMPV A2 TN/94-49, LLC-MK2 cells with CP-100-356, Method 2. As to the method:
In vitro HMPV antiviral activity was evaluated using the clinical isolate A2 strain TN 94-49 (obtained from Dr. John Williams, Vanderbilt University, Tennessee) and LLC-MK2 cells (Millipore Sigma CB_85062804), an immortalized kidney epithelial cell line from Macaca mulatta. Compounds were resuspended in dimethyl sulfoxide (DMSO) at 10 mM, serially diluted and added to a 384-well source plate. Subsequently, the compounds were diluted and transferred onto 384-well assay plates using the Echo-650 automated liquid handling system (Beckman Coulter, Indiana). The test compounds were assessed in duplicate at a top concentration of 200 nM followed by 2.5-fold serial dilutions to give a total of 10 concentration points. DMSO control wells were also included on the assay plates and were either infected or not, acting as positive and negative controls. A2 TN 94-49 virus infections were performed in-suspension with LLC-MK2 cells. The cells were washed twice with PBS and removed from the cell-culture flask with 0.25% trypsin-EDTA (Thermo Fisher Scientific, MA). The trypsin-EDTA was inactivated by resuspending in 2% fetal bovine serum (FBS) and OptiMEM (ThermoFisher Scientific, MA) containing 1% antibiotic-antimycotic. Cells were pelleted by centrifuging for 5 minutes at 800 rpm, the supernatant was removed, and cells were re-suspended and washed in PBS plus 100 μg/mL CaCl2). This step was performed twice. Cells were then re-suspended in serum-free (SF)-OptiMEM containing 4 μg/mL TPCK-Trypsin (Sigma Aldrich, MO), 1% antibiotic-antimycotic (ThermoFisher Scientific, MA), 100 μg/mL CaCl2), and 4 μM of CP-100-356, a P-glycoprotein inhibitor. Cells were counted and seeded at a density of 5,000 cells/well, 12.5 μL/well. Virus infections were done at a multiplicity of infection (MOI) of 0.16 with 12.5 μL added per well. Virus infections were performed in infection media which contained SF-OptiMEM, 100 μg/mL CaCl2) and 1% antibiotic-antimycotic. HMPV viral stocks are suspended in infection media+5% glycerol, thus an equal volume of infection media+5% glycerol was added to uninfected wells to equalize the final % glycerol across all wells of the assay plate. The final concentration of TPCK-trypsin was 2 μg/mL. The final concentration of CP-100-356 was 2 μM. The assay plates were incubated at 37° C., 5% CO2 for 7 days. After 7 days incubation, 12.5 μL of ATP-Lite (PerkinElmer, MA) was added to each well and the raw luminescence values were determined using the Envision 2104 (Perkin Elmer, MA). The average of the raw luminescence values for the cells and virus only positive control wells was subtracted from all conditions tested and the percent cell health was determined by dividing these values by the average of the cells only negative control wells. EC50 values were then calculated by non-linear regression using a four-parameter curve logistic equation. The curve fit model employed was XLFit Dose Response One Site Model 200: y=(A+(B/(1+((x/C)^D)))), where A is the minimum y value, B is the maximum y value, C is the log EC50 value, and D is the slope factor.
Take `COc1cc(C(=O)NC[C@@](O)(c2ccccc2)c2cc3c(c(-c4cc(Cl)c(F)cc4F)n2)OC[C@]3(C)C(N)=O)cc2c1OCCC2` [Example 93]: the EC50 is more than 200 nM.
Next, `COc1cc(OC)c2cc(C(=O)NC[C@@](O)(c3ccccc3)c3cc4c(c(-c5cc(Cl)c(F)cc5F)n3)OC[C@]4(C)C(N)=O)[nH]c2c1` [Example 94]: more than 200 nM; `COc1cc(C(=O)NC[C@@](O)(c2ccccc2)c2cc3c(c(-c4cccc(Cl)c4Cl)n2)OC[C@]3(C)C(N)=O)cc2oc(C)nc12` [Example 95]: less than 200 nM.
With `COc1cc(C(=O)NC[C@@](O)(c2ccccc2)c2cc3c(c(-c4cccc(Cl)c4Cl)n2)OC[C@]3(C)C(N)=O)cc2oc(C3CC3)nc12` [Example 96], the half-maximal effective concentration (EC50) is less than 200 nM.
Next, `C[C@]1(C(N)=O)COc2c1cc([C@@](O)(CNC(=O)c1ccc3nc(C4CC4)oc3c1)c1ccccc1)nc2-c1cccc(Cl)c1Cl` [Example 97]: less than 200 nM.
As to `C[C@]1(C(N)=O)COc2c1cc([C@@](O)(CNC(=O)c1cc(OC3CC3)c3nn(C4CC4)cc3c1)c1ccccc1)nc2-c1cc(Cl)c(F)cc1F` [Example 98], the EC50 is less than 200 nM.
The compound `C[C@]1(C(N)=O)COc2c1cc([C@@](O)(CNC(=O)c1cc(Cl)c3nn(C4CC4)cc3c1)c1ccccc1)nc2-c1cc(Cl)c(F)cc1F` [Example 99] yielded an EC50 of less than 200 nM.
Turning to `C[C@]1(C(N)=O)COc2c1cc([C@@](O)(CNC(=O)c1cc(F)c3nn(C4CC4)cc3c1)c1ccccc1)nc2-c1cc(Cl)c(F)cc1F` [Example 100], the EC50 was less than 200 nM.
Next, `C[C@]1(C(N)=O)COc2c1cc([C@@](O)(CNC(=O)c1ccc3nn(C4CC4)cc3c1)c1ccccc1)nc2-c1cc(Cl)c(F)cc1F` [Example 101]: less than 200 nM; `COc1cc(C(=O)NC[C@](O)(c2cc3c(c(-c4cc(F)c(F)cc4F)n2)OC[C@]3(C)C(N)=O)C2CC2)cc2cc(Cl)cnc12` [Example 103]: less than 200 nM; `C[C@]1(C(N)=O)COc2c1cc([C@@](O)(CNC(=O)c1cc(OC3CC3)c3ncc(Cl)cc3c1)C1CC1)nc2-c1cc(F)c(F)cc1F` [Example 104]: less than 200 nM.
Regarding `[2H]C([2H])([2H])NC(=O)[C@@]1(C)COc2c1cc([C@@](O)(CNC(=O)c1cc(OC)c3nn(C4(F)CC4)cc3c1)c1ccccc1)nc2-c1cc(Cl)c(F)cc1F` [Example 109], the EC50 was less than 200 nM.
Regarding `[2H]C([2H])([2H])NC(=O)[C@@]1(C)COc2c1cc([C@@](O)(CNC(=O)c1cc(OC)c3nc(C4CC4)oc3c1)c1ccccc1)nc2-c1cc(Cl)c(F)cc1F` [Example 110], the EC50 is less than 200 nM.
Next, `C[C@]1(C(N)=O)COc2c1cc([C@@](O)(CNC(=O)c1cc(OC3CC3)c3nn(C4(F)CC4)cc3c1)C1CC1)nc2-c1ccc(F)c(Cl)c1` [Example 112]: less than 200 nM; `COc1cc(C(=O)NC[C@@](O)(c2ccccc2)c2cc3c(c(-c4cc(Cl)c(F)cc4F)n2)OC[C@]3(C)C(N)=O)cc2cc(Cl)nnc12` [Example 113]: less than 200 nM.
Next, `COc1cc(C(=O)NC[C@@](O)(c2ccccc2)c2cc3c(c(-c4cc(Cl)c(F)cc4F)n2)OC[C@]3(C)C(N)=O)cn2cc(C3CC3)nc12` [Example 115]: less than 200 nM.
Next, `C[C@]1(C(N)=O)COc2c1cc([C@@](O)(CNC(=O)c1cc(Cl)c3[nH]ncc3c1)c1ccccc1)nc2-c1cc(Cl)c(F)cc1F` [Example 117]: more than 200 nM.
Compound `Cc1cc(C(=O)NC[C@@](O)(c2ccccc2)c2cc3c(c(-c4cc(Cl)c(F)cc4F)n2)OC[C@]3(C)C(N)=O)cc2cn[nH]c12` [Example 118] came in with an EC50 of less than 200 nM.
Compound `Cc1cc(C(=O)NC[C@](O)(c2cc3c(c(-c4cc(F)c(F)cc4F)n2)OC[C@]3(C)C(N)=O)C2CC2)cc2cn[nH]c12` [Example 120] returned an EC50 of more than 200 nM.
Next, `COc1cc(C(=O)NC[C@](O)(c2cc3c(c(-c4ccnc(F)c4)n2)OC[C@]3(C)C(N)=O)C2CC2)cc2cn(C3CC3)nc12` [Example 121]: more than 200 nM.
Next, `C[C@]1(C(N)=O)COc2c1cc([C@@](O)(CNC(=O)c1cc(OCCO)c3nn(C4CC4)cc3c1)C1CC1)nc2-c1cc(Cl)c(F)cc1F` [Example 126]: less than 200 nM; `Cc1nc2c(OC(F)F)cc(C(=O)NC[C@](O)(c3cc4c(c(-c5cc(Cl)c(F)cc5F)n3)OC[C@]4(C)C(N)=O)c3ccccc3F)cc2cc1Br` [Example 139]: more than 200 nM.
`COc1cc(C(=O)NC[C@@](O)(c2ccncc2)c2cc3c(c(-c4cc(Cl)c(F)cc4F)n2)OC[C@]3(C)C(N)=O)cc2cn(C3CC3)nc12` [Example 152] registered an EC50 of less than 200 nM.
Next, `COc1cc(C(=O)NC[C@@](O)(c2cnn(C)c2)c2cc3c(c(-c4cc(Cl)c(F)cc4F)n2)OC[C@]3(C)C(N)=O)cc2cn(C3CC3)nc12` [Example 153]: more than 200 nM; `COc1cc(C(=O)NC[C@@](O)(c2cccc(F)n2)c2cc3c(c(-c4cc(Cl)c(F)cc4F)n2)OC[C@]3(C)C(N)=O)cn2cc(C3CC3)nc12` [Example 154]: less than 200 nM.
Next, `Cc1nc2c(OC(F)(F)F)cc(C(=O)NC[C@@](O)(c3ccccc3)c3cc4c(c(-c5cc(Cl)c(F)cc5F)n3)OC[C@]4(C)C(N)=O)cc2s1` [Example 188]: more than 200 nM.
Next, `Cc1nc2c(OC3CC3)cc(C(=O)NC[C@@](O)(c3ccccc3)c3cc4c(c(-c5cc(Cl)c(F)cc5F)n3)OC[C@]4(C)C(N)=O)cc2s1` [Example 189]: less than 200 nM.
Take `C[C@]1(C(N)=O)COc2c1cc([C@@](O)(CNC(=O)c1cc(OC3CC3)c3nc(C4CC4)sc3c1)c1ccccc1)nc2-c1cc(Cl)c(F)cc1F` [Example 190]: the EC50 was more than 200 nM.
Next, `C[C@]1(C(N)=O)COc2c1cc([C@@](O)(CNC(=O)c1cc(OC3CC3)n3nc(C4CC4)cc3c1)c1ccccc1)nc2-c1cc(Cl)c(F)cc1F` [Example 191]: less than 200 nM; `Cc1nc2ccc(C(=O)NC[C@@](O)(c3ccccc3)c3cc4c(c(-c5cc(F)c(F)cc5F)n3)OC[C@]4(C)C(N)=O)cc2o1` [Example 192]: less than 200 nM.
Next, `COc1cc(C(=O)NC[C@@](O)(c2ccccc2)c2cc3c(c(-c4cc(F)c(F)cc4F)n2)OC[C@]3(C)C(N)=O)cc2oc(C)nc12` [Example 193]: less than 200 nM.
Next, `C[C@]1(C(N)=O)COc2c1cc([C@@](O)(CNC(=O)c1ccc3nc(C4CC4)oc3c1)c1ccccc1)nc2-c1cc(F)c(F)cc1F` [Example 194]: less than 200 nM; `COc1cc(C(=O)NC[C@@](O)(c2ccccc2)c2cc3c(c(-c4cc(F)c(F)cc4F)n2)OC[C@]3(C)C(N)=O)cc2oc(C3CC3)nc12` [Example 195]: less than 200 nM; `C[C@]1(C(N)=O)COc2c1cc([C@@](O)(CNC(=O)c1cc(OC3CC3)c3ncc(Cl)cc3c1)c1ccccc1)nc2-c1cc(Cl)c(F)cc1F` [Example 196]: less than 200 nM.
Consider `C[C@]1(C(N)=O)COc2c1cc([C@@](O)(CNC(=O)c1cc(OC3CC3)c3ncc(Cl)cc3c1)c1ccccc1)nc2-c1cc(F)c(F)cc1F` [Example 197], for which the EC50 was less than 200 nM.
Regarding `COc1cc(C(=O)NC[C@@](O)(c2ccccc2)c2cc3c(c(-c4cc(F)c(F)cc4F)n2)OC[C@]3(C)C(N)=O)cc2cc(Cl)cnc12` [Example 198], the EC50 was less than 200 nM.
Next, `C[C@]1(C(N)=O)COc2c1cc([C@@](O)(CNC(=O)c1ccc3nc(C4CC4)oc3c1)c1ccccc1)nc2-c1ccc2c(c1)OC(F)(F)O2` [Example 199]: more than 200 nM.

The values above are taken from patent US20240368174A1, “Antiviral Heterocyclic Compounds” (Enanta Pharmaceuticals, Inc., priority 2023, published 2024).
